SMILES strings stand for the structures.

We go through 35 compounds from patent US20050197350A1, “Novel quinoline, tetrahydroquinazoline, and pyrimidine derivatives and methods of treatment related to the use thereof” (TAISHO PHARMACEUTICAL CO., LTD., priority 2003, published 2005).

The subject of this assay is MCH receptors. Kind of assay: MCH receptor activity class (method not given).
Setting [1] is: class by percent of control at 10^-7 M or IC50.
The mark [2] stands for this setting: class 1-3 by percent of control at 10^-7 M or IC50.
[3] abbreviates: activity class per percent of control at 10^-7 M or IC50.
Where [4] appears, read: MCH receptor, class by percent of control at 10^-7 M or IC50.
Where [5] appears, read: class by percent of control at 10^−7 M or IC50.
The mark [6] stands for this setting: activity class 1-3: percent of control at 10^-7 M or IC50.

Turning to `CN(C)c1cc(N[C@H]2CC[C@@H](NC(=O)c3ccccc3COc3ccccc3)CC2)nc2ccccc12` [compound 760], under setting [1], the class is 3 (Class 3 The value of percent of control at 10^−7 M was more than 60% or the value of IC50 was more than 200 nM.).

Consider `COc1cc(OC)cc(C(=O)N[C@H]2CC[C@@H](Nc3nccc(N(C)C)n3)CC2)c1` [compound 294, N-(cis-4-{[4-(dimethylamino)pyrimidin-2-yl]amino}cyclohexyl)-3,5-dimethoxybenzamide], for which the class under setting [1] is 1 (Class 1: The value of percent of control at 10^−7 M was less than 40% or the value of IC50 was less than 50 nM.).

For the compound `CN(C)c1ccnc(N[C@H]2CC[C@@H](CNC(=O)Cc3c(Cl)ccc(Cl)c3Cl)CC2)n1` [compound 926, N-[(cis-4-{[4-(dimethylamino)pyrimidin-2-yl]amino}cyclohexyl)methyl]-2-(2,3,6-trichlorophenyl)acetamide], under setting [1], the class was 1 (Class 1: The value of percent of control at 10^−7 M was less than 40% or the value of IC50 was less than 50 nM.).

Consider `COc1cc(NC(=S)N[C@H]2CC[C@@H](Nc3nc4c(c(N(C)C)n3)CCCC4)CC2)cc(OC)c1OC` [compound 1745], for which, under setting [1], the class is 1 (Class 1: The value of percent of control at 10^−7 M was less than 40% or the value of IC50 was less than 50 nM.).

For the compound `CN(C)c1nc(N[C@H]2CC[C@@H](CNC(=O)Nc3c(F)cc(Br)cc3Br)CC2)nc2c1CCCC2` [compound 2463], the class (MCH receptor activity class 1-3 (percent of control at 10^-7 M or IC50)) is 3 (Class 3 The value of percent of control at 10^−7 M was more than 60% or the value of IC50 was more than 200 nM.).

Consider `Cc1cccc(Cl)c1NC(=O)N[C@H]1CC[C@@H](Nc2nccc(N(C)C)n2)CC1` [compound 2194], for which the class under setting [1] is 3 (Class 3 The value of percent of control at 10^−7 M was more than 60% or the value of IC50 was more than 200 nM.).

`COc1cccc(C(=O)NC[C@H]2CC[C@@H](Nc3nc4c(c(N(C)C)n3)CCCC4)CC2)c1` [compound 582]: the class under setting [2] is 3 (Class 3 The value of percent of control at 10^−7 M was more than 60% or the value of IC50 was more than 200 nM.).

On to `Cc1cc(C(=O)NC[C@H]2CC[C@@H](Nc3nccc(N(C)C)n3)CC2)nn1C(C)(C)C` [compound 435, 1-tert-butyl-N-[(cis-4-{[4-(dimethylamino)pyriniidin-2-yl]amino}cyclohexyl)methyl]-5-methyl-1H-pyrazole-3-carboxamide], for which the class under setting [2] is recorded as 3 (Class 3 The value of percent of control at 10^−7 M was more than 60% or the value of IC50 was more than 200 nM.).

Consider `COc1ccc(NC(=O)N[C@H]2CC[C@@H](Nc3nc4c(c(N(C)C)n3)CCCC4)CC2)cc1` [compound 1831], for which the class under setting [1] is listed as 3 (Class 3 The value of percent of control at 10^−7 M was more than 60% or the value of IC50 was more than 200 nM.).

For the compound `Cc1onc(-c2ccccc2)c1NC(=O)N[C@H]1CC[C@@H](Nc2cc(N(C)C)c3ccccc3n2)CC1` [compound 2166], the class under setting [1] is listed as 3 (Class 3 The value of percent of control at 10^−7 M was more than 60% or the value of IC50 was more than 200 nM.).

In the case of `COc1cc(OC)c(NC(=S)N[C@H]2CC[C@@H](Nc3nc4c(c(N(C)C)n3)CCCC4)CC2)cc1Cl` [compound 1777], the class under setting [1] is 1 (Class 1: The value of percent of control at 10^−7 M was less than 40% or the value of IC50 was less than 50 nM.).

On to `CCOc1ccccc1NC(=S)N[C@H]1CC[C@@H](Nc2nc3c(c(N(C)C)n2)CCCC3)CC1` [compound 1782], for which the class under setting [1] is listed as 2 (Class 2: The value of percent of control at 10^−7 M was from 40% to 60% or the value of IC′50 was from 50 nM to 200 nM.).

For `CN(C)c1nc(N[C@H]2CC[C@@H](CNC(=O)C3c4ccccc4Oc4ccccc43)CC2)nc2c1CCCC2` [compound 1083], the class under setting [3] was 3 (Class 3 The value of percent of control at 10^−7 M was more than 60% or the value of IC50 was more than 200 nM.).

Take `Cc1cccc(C(C)C)c1NC(=O)N[C@H]1CC[C@@H](Nc2cc(N(C)C)c3ccccc3n2)CC1` [compound 2109, N-(cis-4-{[4-(dimethylamino)quinolin-2-yl]amino}cyclohexyl)-N′-(2-isopropyl-6-methylphenyl)urea]: under setting [1], the class was 2 (Class 2: The value of percent of control at 10^−7 M was from 40% to 60% or the value of IC′50 was from 50 nM to 200 nM.).

`CN(C)c1nc(N[C@H]2CC[C@@H](NC(=S)Nc3cccc(Br)c3)CC2)nc2c1CCCC2` [compound 1929]: the class under setting [4] is on record as 3 (Class 3 The value of percent of control at 10^−7 M was more than 60% or the value of IC50 was more than 200 nM.).

Regarding `COc1ccc2c(CC(=O)N[C@H]3CC[C@@H](Nc4nccc(N(C)C)n4)CC3)cc(=O)oc2c1` [compound 854], the class under setting [1] was 3 (Class 3 The value of percent of control at 10^−7 M was more than 60% or the value of IC50 was more than 200 nM.).

With `CN(C)c1ccnc(N[C@H]2CC[C@@H](CNCC=C(c3ccccc3)c3ccccc3)CC2)n1` [compound 1279], under setting [1], the class is given as 1 (Class 1: The value of percent of control at 10^−7 M was less than 40% or the value of IC50 was less than 50 nM.).

Regarding `Cc1cc(C(=O)N[C@H]2CC[C@@H](Nc3cc(N(C)C)c4ccccc4n3)CC2)ccc1F` [compound 81, N-(cis-4-{[4-(dimethylamino)quinolin-2-yl]amino}cyclohexyl)-4-fluoro-3-methylbenzamide], the class under setting [4] is given as 1 (Class 1: The value of percent of control at 10^−7 M was less than 40% or the value of IC50 was less than 50 nM.).

For `CN(C)c1nc(N[C@H]2CC[C@@H](NC(=S)Nc3ccccc3F)CC2)nc2c1CCCC2` [compound 1978], the class under setting [4] is given as 3 (Class 3 The value of percent of control at 10^−7 M was more than 60% or the value of IC50 was more than 200 nM.).

As for `Cc1cc(CN[C@H]2CC[C@@H](Nc3nc4c(c(N(C)C)n3)CCCC4)CC2)cc(C)c1O` [compound 1344], under setting [1], the class was 3 (Class 3 The value of percent of control at 10^−7 M was more than 60% or the value of IC50 was more than 200 nM.).

`Cc1noc(-c2ccccc2)c1NC(=O)NC[C@H]1CC[C@@H](Nc2nc3c(c(N(C)C)n2)CCCC3)CC1` [compound 2483]: the class under setting [1] is 3 (Class 3 The value of percent of control at 10^−7 M was more than 60% or the value of IC50 was more than 200 nM.).

For `CN(C)c1cc(N[C@H]2CC[C@@H](CNC(=O)c3ccc4nonc4c3)CC2)nc2ccccc12` [compound 150, N-[(cis-4-{[4-(dimethylamino)quinolin-2-yl]amino}cyclohexyl)methyl]-2,1,3-benzoxadiazole-5-carboxamide], the class under setting [4] is on record as 3 (Class 3 The value of percent of control at 10^−7 M was more than 60% or the value of IC50 was more than 200 nM.).

With `Cc1cc(N(C)C)nc(N[C@H]2CC[C@@H](NC(=O)c3cccc(Cl)c3)CC2)n1` [compound 2987], the class under setting [5] is recorded as 1 (Class 1: The value of percent of control at 10^−7 M was less than 40% or the value of IC50 was less than 50 nM.).

As to `Cc1cc(N(C)C)nc(N[C@H]2CC[C@@H](C(=O)NCc3ccc(F)c(F)c3)CC2)n1` [compound 2801, cis-N-(3,4-difluorobenzyl)-4-{[4-(dimethylamino)-6-methylpyrimidin-2-yl]amino}cyclohexanecarboxamide], the class under setting [5] was 1 (Class 1: The value of percent of control at 10^−7 M was less than 40% or the value of IC50 was less than 50 nM.).

For `CN(C)c1cc(N[C@H]2CC[C@@H](CNCCc3ccc(C(C)(C)C)cc3)CC2)nc2ccccc12` [compound 1468], the class under setting [1] is 3 (Class 3 The value of percent of control at 10^−7 M was more than 60% or the value of IC50 was more than 200 nM.).

With `COc1ccc2ccccc2c1CN[C@H]1CC[C@@H](Nc2nccc(N(C)C)n2)CC1` [compound 1211], under setting [1], the class is reported as 3 (Class 3 The value of percent of control at 10^−7 M was more than 60% or the value of IC50 was more than 200 nM.).

With `COC(=O)c1cccc(NC(=S)N[C@H]2CC[C@@H](Nc3nc4c(c(N(C)C)n3)CCCC4)CC2)c1` [compound 1762], under setting [1], the class is 3 (Class 3 The value of percent of control at 10^−7 M was more than 60% or the value of IC50 was more than 200 nM.).

As to `C=CCOC(=O)N[C@H]1CC[C@@H](Nc2nccc(N(C)C)n2)CC1` [compound 1630], under setting [6], the class is 3 (Class 3 The value of percent of control at 10^−7 M was more than 60% or the value of IC50 was more than 200 nM.).

Take `CN(C)c1nc(N[C@H]2CC[C@@H](NC(=O)c3ccc(SC(F)(F)F)cc3)CC2)nc2c1CCCC2` [compound 567]: the class under setting [2] was 3 (Class 3 The value of percent of control at 10^−7 M was more than 60% or the value of IC50 was more than 200 nM.).

In the case of `Cc1noc(-c2ccccc2)c1NC(=O)N[C@H]1CC[C@@H](Nc2nc3c(c(N(C)C)n2)CCCC3)CC1` [compound 1691], the class under setting [6] was 1 (Class 1: The value of percent of control at 10^−7 M was less than 40% or the value of IC50 was less than 50 nM.).

As for `CCOC(=O)c1ccc(NC(=O)N[C@H]2CC[C@@H](Nc3nc4c(c(N(C)C)n3)CCCC4)CC2)cc1` [compound 1823], the class under setting [1] was 3 (Class 3 The value of percent of control at 10^−7 M was more than 60% or the value of IC50 was more than 200 nM.).

Turning to `CCN(CC)c1ccc(CNC[C@H]2CC[C@@H](Nc3cc(N(C)C)c4ccccc4n3)CC2)cc1` [compound 1150], under setting [3], the class is given as 3 (Class 3 The value of percent of control at 10^−7 M was more than 60% or the value of IC50 was more than 200 nM.).

With `CCOc1ccccc1C(=O)N[C@H]1CC[C@@H](Nc2nccc(N(C)C)n2)CC1` [compound 290], the class under setting [1] is reported as 3 (Class 3 The value of percent of control at 10^−7 M was more than 60% or the value of IC50 was more than 200 nM.).

In the case of `CCc1ccccc1CNC[C@H]1CC[C@@H](Nc2nccc(N(C)C)n2)CC1` [compound 1322], the class under setting [1] is recorded as 3 (Class 3 The value of percent of control at 10^−7 M was more than 60% or the value of IC50 was more than 200 nM.).

As to `CN(C)c1nc(N[C@H]2CC[C@@H](CNC(=O)c3ccccc3Br)CC2)nc2c1CCCC2` [compound 655], under setting [1], the class is given as 3 (Class 3 The value of percent of control at 10^−7 M was more than 60% or the value of IC50 was more than 200 nM.).
